Measurements published in patent publication US20190075794A1, “BIODEGRADABLE ANTIMICROBIAL COMPOSITIONS AND USES THEREOF TO COMBAT MICROORGANISMS” (IPABC LTD, priority 2015, published 2019).

Experiments:
[1] = system: E. coli; assay: Assay for antimicrobial activity: test solution incubated with 10^6 CFUs bacteria, neutralised, plated, growth assessed after 24 hours; type: cell-based; design: key to Growth of E. coli 24 hrs after treatment, 1:100 dilution of bacterial reaction mixture / Growth of E. coli 24 hrs after treatment, 1:1000 dilution of bacterial reaction mixture / Growth of E. coli 24 hrs after treatment, 1:10 dilution of bacterial reaction mixture: + plates with microbial growth; − for plates that had no growth; conditions: for Growth of E. coli 24 hrs after treatment, 1:1000 dilution of bacterial reaction mixture / Growth of E. coli 24 hrs after treatment, 1:100 dilution of bacterial reaction mixture / Growth of E. coli 24 hrs after treatment, 1:10 dilution of bacterial reaction mixture: 10^6 CFUs, 30 min RT; for Concentration at which growth of E. coli is inhibited: 30 min treatment
Protocol: • APG: AG6210 (Akzo Nobel Surface Chemistry AB) 60% aqueous solution of a 60:40 mixture of decyl-β-D-glucopyranoside and octyl-β-D-glucopyranoside • Decyl-β-D-glucopyranoside—EC number: 259-218-1; CAS number: 54549-25-6 • Octyl-β-D-glucopyranoside—EC number: 414-420-0; CAS number: 108081-06-7 • ε-polylysine: Zhengzhou Bainafo Co., Ltd. […] L(+)-lactic acid. […] CAS number: 79-33-4 • Neutraliser (NF): 30 ml Tween 80, 30 g saponine, 1 g histidine, 1 g cysteine dissolved in 1000 ml water; sterilised by autoclaving. • RBT 24/7: Residual Barrier Technology. Proprietary antimicrobial surface sanitizer. • Culture media: Oxoid plate count agar (CM0463): […]

[2] = at 20° C.; cited from earlier work
[3] = acid(s) alone, printed as cannot inhibit growth when used at up to, combined concentration for lactic + citric
[4] = Table 1: L(+)-lactic acid alone, listed as 250 mM L(+)-Lactic Acid
[5] = Table 1: L(+)-lactic acid alone, listed as 500 mM L(+)-Lactic Acid
[6] = Table 1: L(+)-lactic acid alone, listed as 1M L(+)-Lactic Acid, 1M L(+)-lactic acid
[7] = Table 1: L(+)-lactic acid alone, listed as 2M L(+)-Lactic Acid, 2M L(+)-lactic acid

Row | Structure (SMILES) | Growth of E. coli 24 hrs after treatment, 1:1000 dilution of bacterial reaction mixture ([1]; Table 2: citric acid alone, listed as 50 mM Citric Acid) | Concentration at which growth of E. coli is inhibited [1, 3] [mM] | Growth of E. coli 24 hrs after treatment, 1:100 dilution of bacterial reaction mixture ([1]; Table 1: L(+)-lactic acid alone, listed as 100 mM L(+)-Lactic Acid) | Growth of E. coli 24 hrs after treatment, 1:1000 dilution of bacterial reaction mixture ([1]; Table 1: L(+)-lactic acid alone, listed as 100 mM L(+)-Lactic Acid, 100 mM L(+)-lactic acid) | Growth of E. coli 24 hrs after treatment, 1:10 dilution of bacterial reaction mixture [1, 4] | Growth of E. coli 24 hrs after treatment, 1:100 dilution of bacterial reaction mixture [1, 4] | Growth of E. coli 24 hrs after treatment, 1:1000 dilution of bacterial reaction mixture ([1]; Table 1: L(+)-lactic acid alone, listed as 250 mM L(+)-Lactic Acid, 250 mM L(+)-lactic acid) | Growth of E. coli 24 hrs after treatment, 1:10 dilution of bacterial reaction mixture [1, 5] | Growth of E. coli 24 hrs after treatment, 1:100 dilution of bacterial reaction mixture [1, 5] | Growth of E. coli 24 hrs after treatment, 1:1000 dilution of bacterial reaction mixture ([1]; Table 1: L(+)-lactic acid alone, listed as 1M L(+)-Lactic Acid) | Growth of E. coli 24 hrs after treatment, 1:10 dilution of bacterial reaction mixture [1, 6] | Growth of E. coli 24 hrs after treatment, 1:100 dilution of bacterial reaction mixture [1, 6] | Growth of E. coli 24 hrs after treatment, 1:1000 dilution of bacterial reaction mixture ([1]; Table 1: L(+)-lactic acid alone, listed as 2M L(+)-Lactic Acid) | Growth of E. coli 24 hrs after treatment, 1:10 dilution of bacterial reaction mixture [1, 7] | Growth of E. coli 24 hrs after treatment, 1:100 dilution of bacterial reaction mixture [1, 7] | Concentration at which growth of E. coli is inhibited ([1]; lactic acid alone) | CMC [2]
1 | O=C(O)CC(O)(CC(=O)O)C(=O)O [Citric Acid, Citric acid] | + | > 50 |  |  |  |  |  |  |  |  |  |  |  |  |  |  | 
2 | C[C@H](O)C(=O)O [L(+)-Lactic Acid, L(+)-lactic acid] |  | > 40 | + | + | + | + | − | + | + | − | + | + | − | − | − | at least 1 M | 
3 | CCCCCCCCCCO[C@@H]1O[C@H](CO)[C@@H](O)[C@H](O)[C@H]1O [decylglucoside, Decyl-β-D-glucopyranoside] |  |  |  |  |  |  |  |  |  |  |  |  |  |  |  |  | approximately 300 ppm
